Data from patent US20180354909A1, “SUBSTITUTED BENZIMIDAZOLIUM, PYRIDO-IMIDAZOLIUM, OR PYRAZINO-IMIDAZOLIUM COMPOUNDS AS CHEMOTHERAPEUTICS” (The Board of Regents of the University of Texas System, priority 2015, published 2018).
“Also recorded” adds a separate entry of the source.

Experiments:
[1] = In vivo plasma PK, 10 mg/kg IP; set-up: species or system mice; details: female, CD-1, mouse
Procedure: 22E. 21 female CD-1 mice (6 wks) were administered 10 mg/kg L129 IP, 0.2 ml/mouse formulated as 5% DMSO, 10% Cremophor EL, and 85% D5W. Plasma was processed from whole blood by centrifugation of the ACD treated blood for 10′ at 10,000 rpm in a standard centrifuge. Brains were weighed and snap frozen in liquid nitrogen. Brain homogenates were prepared by mincing the brain tissue and homogenizing in a 3-fold volume of PBS (total volume of homogenate in mL=4× weight in g.) 100 microliters plasma or brain homogenate was mixed with 200 microliters of acetonitrile containing formic acid and an internal standard (final concentration of formic acid=0.1%, IS=25 ng/mL). The samples were vortexed 15 sec, incubated at room temp for 10′ and spun 2×13,200 rpm in a standard microcentrifuge. The supernatant was then analyzed by LC/MS/MS. Buffer A: Water+0.1% formic acid; Buffer B: MeOH+0.1% formic acid; flow rate 1.5 ml/min; column Agilent C18 XDB column, 5 micron packing 50×4.6 mm size; 0-1.5 min 3% B, 1.5-2.5 min gradient to 100% B; 2.5-3.5 min 100% B, 3.5-3.6 min gradient to 3% B; 3.6-4.5 min 3% B; IS N-benzylbenzamide (transition 212.1 to 91.1); Compound transition 474.2 to 336.3. These methods were used data obtained in the FIGS. 22B and 22E.

MEF [2] = test: OCR and ECAR measurement (Seahorse) in MEF; type: cell-based, mouse
Procedure: Oxygen consumption rate (OCR) and extracellular acidification rate (ECAR) were measured by Seahorse Bioscience instrument (XF24) with 80-90% confluent cells, according to the manufacturer's protocol. Briefly, cells were equilibrated for 1 hr at 37° C. incubator lacking CO2. Oxygen concentration and pH in media were measured during sequential treatment with 12M11, Oligomycin (1 μM), FCCP (1 μM), and Rotenone (200 nM). A minimum of three wells were utilized per condition to calculate OCR and ECAR.

Mut6 [3] = test: Glucose and lactate in culture media of Mut6 cells; type: cell-based, mouse; details: Mut6, 7 hrs incubation
Procedure: Mut6 cells were incubated with 12M11 for 7 hrs, and the collected culture media was measured for glucose, lactate, glutamine, and glutamate (Birsoy, et al., 2014; Lunt and Vander Heiden, 2011). […] Oxygen consumption and extracellular acidification using a XF24 Seahorse analyzer was used to measure cellular oxygen consumption rate (OCR) and extracellular acidification rate (ECAR) (FIG. 8).

MEF [4] = test: Cytotox testing (CellTiter-Glo) in MEF; type: cell-based, mouse
Procedure: (§1) Mut6 tumor cells were cultured in DMEM/F12 media supplemented by EGF (10 ng/mL), basic FGF (10 ng/mL), heparin (4 ug/mL), glucose (total 21 mM), NaHCO3 (113 μg/mL), Hepes (119 μg/mL), glutamine (2 mM), sodium pyruvate (1 mM), N2 supplement (ThermoFisher Gibco 17502-048, 100×, at 100-fold dilution), B27 supplement (ThermoFisher Gibco 12587-010, 50×, at 100-fold dilution), and penicillin/streptomycin (ThermoFisher, final 1%). Cells were maintained in Ultra-low attachment plate (Corning) as sphere-forming cells. For ATP assays and protein/RNA isolation, cells were plated into 96-well plates or 6-well plated that were coated with poly-lysine (Sigma P6407, 10 μg/mL in PBS, 4 hr at 37° C.) and laminin (ThermoFisher 23017015, ˜5 mg/L in PBS, overnight at 37° C.). MEFs and Astrocytes were cultured in DMEM supplemented with 10% FBS and 1% Penicillin/Streptomycin.
2,000 cells were plated into each well of 96-well plates. About 3 hours later, cells were treated by 12M11, at 800-fold dilution (4 mM stock was diluted into 5 μM final concentration). Cells were further incubated for 4 days. CellTiter-Glo assay (Promega) was performed according to manufacturer's instructions, by adding 20 μL of reagent into each well. Luminescence signal was detected by the PolarStar plate reader (BMG Labtech). […] EC505 were calculated by GraphPad Prism6 software.

astrocytes = test: Cytotox testing (CellTiter-Glo) in astrocytes; type: cell-based
Procedure: as §1
(§2) 2,000 cells were plated into each well of 96-well plates. About 3 hours later, cells were treated by 12M11, at 800-fold dilution (4 mM stock was diluted into 5 μM final concentration). Cells were further incubated for 4 days. CellTiter-Glo assay (Promega) was performed according to manufacturer's instructions, by adding 20 μL of reagent into each well. Luminescence signal was detected by the PolarStar plate reader (BMG Labtech). Experiments were performed in quadruplicate, and results are presented with mean average −/+ standard deviation. EC505 were calculated by GraphPad Prism6 software.

MEF [5] = test: Change in ATP levels in MEF cells; type: cell-based, mouse; details: 2-6 hr
Procedure: Mut6 tumor cells or MEFs were plated into 96-well plates. One day later, Oligomyin (2 μM), Rotenone (200 nM), or 12M11 (1 μM) were added into each well and then ATP levels were measured by Cell-Titer Glo (Promega) after 2 hr, 4 hr, or 6 hr incubation. Each data is mean of six replicates with ± standard deviation.

[6] = tested on: cancer cell lines (HeLa, DAOY, MCF7, 435 and HCC38 cells); test: CellTiter-Glo cell viability in cancer cell lines; type: cell-based, human; details: significant proportion of cell lines tested, excluding DAOY and MEF
Procedure: The activity of compound 12M11 was tested against a variety of cancer cell lines (see FIG. 2A), including those are routinely used in the literature such as HeLa, DAOY, MCF7, 435 and HCC38 cells. […] Just as for MEF cells, without wishing to be bound by any theory, it is believed that the resistance of DAOY cells to the OxyPhos inhibitor 12M11 can be attributed to their higher ATP levels per cell (FIG. 13B) combined with lower intrinsic OxyPhos activity as assessed by TMRE staining (FIG. 13C).

Mut6 [7] = test: Cytotox testing (CellTiter-Glo ATP assay) in Mut6 cells; type: cell-based, mouse
Procedure: as §1
as §2, with “Cells were further incubated for 4 days.” left out
The compounds described herein were tested using a cell-based cytotoxicity assay against neuronal stem cells in Mut6, which is a mouse glioblastoma model cell line.

Cmax [1]: 2.7 ng/mL
EC50 [6]: mid nanomolar to low micromolar range
SMILES: CCc1n(CC(=O)O[C@@H]2C[C@H](C)CC[C@H]2C(C)C)c2ccccc2[n+]1C.[Cl-] [Compound 12M11]
extracellular acidification (MEF [2]): do not increase acidification significantly
oxygen consumption rate (OCR) (MEF [2]): decrease
lactate secretion (Mut6 [3]): increased
uptake of glucose (Mut6 [3]): increased
activity against MEF (MEF [4]): no to minimal effect; also recorded: no activity
activity against astrocytes (astrocytes): no to minimal effect; also recorded: no activity; also recorded: uniquely resistant
ATP levels (% change from basal) (MEF [5]): increase
activity against Mut6 cells (Mut6 [7]; CellTiter-Glo): specific nanomolar activity; also recorded: specific toxicity
EC50 (Mut6 [7]; Mus musculus, Mut6 cells, FIG. 1, read-out: potency): ~100 nM
cell death on Mut6 cells (Mut6 [7]; after six hours of exposure): irrevocable cell death
